The values that follow come from US20250353891A1 (MEDIMMUNE LIMITED, priority 2022, published 2025).

By EC50 is commonly meant the concentration giving half of the maximal effect.

Each structure is given as a SMILES string. Like-named read-outs stand apart in the source and are kept apart here. Starred links: 1 amine or outer side, 2 acyl side, 3 side chain; linkers in the order of their positions; H or OH if unused. Non-standard residues stand in square brackets, D forms with d. Residues, ends and D or L forms follow the SMILES beside them. Groups on a side chain read outwards from the residue. *: point of attachment. C20 diacid = O=C(O)CCCCCCCCCCCCCCCCCCC(=O)*; C18 diacid = O=C(O)CCCCCCCCCCCCCCCCC(=O)*; γGlu = O=C(O)[C@H](CCC(=O)[*:2])N[*:1]; αMeF = C[C@](N)(Cc1ccccc1)C(=O)O; PEG2 = NCCOCCOCCC(=O)O; AEEA = NCCOCCOCC(=O)O; Aib = CC(C)(N)C(=O)O

Assay [1] deals with human GLP-1 receptor (hGLP-1R) (Homo sapiens, UniProt P43220). Description: cAMP production (HTRF) in CHO cells expressing hGLP-1R. It is filed as cell-based. Details: expressed in transfected cells. The conditions noted are these: for % Relative Potency Ratio: % GLP-1R activity relative to GLP-1 / % GlucR activity relative to glucagon. Summed up:
(§1)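 Potency values represent EC50 from 4-parameter logistic curves of HTRF % Delta F signal. Receptor-expressing CHO cells (hGCGR 2×10^5 cells/mL, hGLP-1R 1×10^5 cells/mL) were exposed for 30 min at room temperature before two-step cAMP detection.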
In general terms: cAMP levels reflect the balance of adenylyl cyclase and phosphodiesterase activity.

Assay [2] deals with human glucagon receptor (hGCGR) (Homo sapiens, UniProt P47871). Description: cAMP production (HTRF) in CHO cells expressing hGCGR. It is filed as cell-based. Details: expressed in transfected cells. The following applies: cAMP, CHO cells, 0.1% BSA, geometric mean. The method in brief:
as §1

The mark [3] stands for this setting: cAMP, CHO cells, 0.1% BSA, geometric mean, read-out: hGLP-1R EC50.

Sequence of human glucagon receptor (hGCGR) (P47871 26-477): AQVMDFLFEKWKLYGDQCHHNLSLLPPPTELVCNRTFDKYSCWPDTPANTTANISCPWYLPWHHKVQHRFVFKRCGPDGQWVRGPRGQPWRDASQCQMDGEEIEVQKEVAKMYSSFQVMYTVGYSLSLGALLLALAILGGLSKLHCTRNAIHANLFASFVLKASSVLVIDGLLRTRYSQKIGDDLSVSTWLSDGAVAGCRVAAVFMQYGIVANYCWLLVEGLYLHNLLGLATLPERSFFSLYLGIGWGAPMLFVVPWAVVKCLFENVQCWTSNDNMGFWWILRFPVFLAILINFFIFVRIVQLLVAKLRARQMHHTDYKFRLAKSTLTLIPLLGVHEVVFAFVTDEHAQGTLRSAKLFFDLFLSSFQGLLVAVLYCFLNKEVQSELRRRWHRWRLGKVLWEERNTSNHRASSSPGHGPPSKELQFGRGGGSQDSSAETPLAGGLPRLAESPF
Sequence of human GLP-1 receptor (hGLP-1R) (P43220 24-463): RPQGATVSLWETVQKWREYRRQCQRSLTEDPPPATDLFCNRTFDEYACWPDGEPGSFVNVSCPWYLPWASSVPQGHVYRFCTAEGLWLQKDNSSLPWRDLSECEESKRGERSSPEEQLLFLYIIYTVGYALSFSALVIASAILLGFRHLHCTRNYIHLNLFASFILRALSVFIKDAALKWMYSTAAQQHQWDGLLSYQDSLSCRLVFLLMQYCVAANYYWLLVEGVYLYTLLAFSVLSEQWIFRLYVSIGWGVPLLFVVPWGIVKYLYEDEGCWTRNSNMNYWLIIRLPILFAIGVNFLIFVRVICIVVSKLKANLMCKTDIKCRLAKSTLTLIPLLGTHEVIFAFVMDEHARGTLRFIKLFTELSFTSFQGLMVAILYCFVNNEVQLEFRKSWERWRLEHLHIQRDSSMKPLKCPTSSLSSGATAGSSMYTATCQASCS

Regarding `CC[C@H](C)[C@H](NC(=O)[C@H](Cc1c[nH]c2ccccc12)NC(=O)[C@H](CCCCNC(=O)CC[C@H](NC(=O)CCCCCCCCCCCCCCCCCCC(=O)O)C(=O)O)NC(=O)[C@@H](NC(=O)[C@H](Cc1ccccc1)NC(=O)[C@H](CC(=O)O)NC(=O)[C@H](CCC(N)=O)NC(=O)[C@H](C)NC(=O)[C@H](C)NC(=O)[C@H](CCC(N)=O)NC(=O)[C@H](CO)NC(=O)[C@H](CC(=O)O)NC(=O)[C@H](CC(C)C)NC(=O)[C@](C)(Cc1ccccc1)NC(=O)[C@H](CCCCN)NC(=O)[C@H](CO)NC(=O)[C@@H](NC(=O)[C@H](CC(=O)O)NC(=O)[C@H](CO)NC(=O)[C@@H](NC(=O)[C@](C)(Cc1ccccc1)NC(=O)[C@H](CO)NC(=O)CNC(=O)[C@H](Cc1c[nH]cn1)NC(=O)C(C)(C)NC(=O)[C@@H](N)Cc1c[nH]cn1)[C@@H](C)O)C(C)C)C(C)C)C(=O)N[C@@H](C)C(=O)N[C@@H](CC(N)=O)C(=O)N[C@H](C(N)=O)[C@@H](C)O` [Peptide 354], in assay [1], the “% Relative Potency Ratio” value turned out to be 1.6. Further, the EC50 in assay [1] (hGLP-1R EC50 (pM)) amounted to 1110 pM; in assay [2] (hGluc-R EC50 (pM)), 902 pM.
`CC[C@H](C)[C@H](NC(=O)[C@H](Cc1c[nH]c2ccccc12)NC(=O)[C@H](CCCCNC(=O)CCOCCOCCNC(=O)CCOCCOCCNC(=O)CC[C@H](NC(=O)CC[C@H](NC(=O)CCCCCCCCCCCCCCCCCCC(=O)O)C(=O)O)C(=O)O)NC(=O)[C@@H](NC(=O)[C@H](Cc1ccccc1)NC(=O)[C@H](CC(=O)O)NC(=O)[C@H](CCC(N)=O)NC(=O)[C@H](C)NC(=O)[C@H](C)NC(=O)[C@H](CCC(N)=O)NC(=O)[C@H](CO)NC(=O)[C@H](CC(=O)O)NC(=O)[C@H](CC(C)C)NC(=O)[C@](C)(Cc1ccccc1)NC(=O)[C@H](CCCCN)NC(=O)[C@H](CO)NC(=O)[C@@H](NC(=O)[C@H](CC(=O)O)NC(=O)[C@H](CO)NC(=O)[C@@H](NC(=O)[C@](C)(Cc1ccccc1)NC(=O)[C@H](CO)NC(=O)CNC(=O)[C@H](Cc1c[nH]cn1)NC(=O)C(C)(C)NC(=O)[C@@H](N)Cc1c[nH]cn1)[C@@H](C)O)C(C)C)C(C)C)C(=O)N[C@@H](C)C(=O)N[C@@H](CC(N)=O)C(=O)N[C@H](C(N)=O)[C@@H](C)O` [Peptide 355] (H-H[Aib]HGS[αMeF]TSDVSK[αMeF]LDSQAAQDFVK([PEG2-PEG2-γGlu-γGlu-C20 diacid])WIANT-NH2; N-terminus assumed): the “% Relative Potency Ratio” value in assay [1] was determined as 2.2. Besides, the results for the EC50 in assay [1] (hGLP-1R EC50 (pM)) and in assay [2] (hGluc-R EC50 (pM)) were 424 pM and 478 pM, respectively.
For the molecule `CC[C@H](C)[C@H](NC(=O)[C@H](Cc1c[nH]c2ccccc12)NC(=O)[C@H](CCCCNC(=O)COCCOCCNC(=O)COCCOCCNC(=O)CC[C@H](NC(=O)CCCCCCCCCCCCCCCCCCC(=O)O)C(=O)O)NC(=O)[C@@H](NC(=O)[C@H](Cc1ccccc1)NC(=O)[C@H](CC(=O)O)NC(=O)[C@H](CCC(N)=O)NC(=O)[C@H](C)NC(=O)[C@H](C)NC(=O)[C@H](CCC(N)=O)NC(=O)[C@H](CO)NC(=O)[C@H](CC(=O)O)NC(=O)[C@H](CC(C)C)NC(=O)[C@](C)(Cc1ccccc1)NC(=O)[C@H](CCCCN)NC(=O)[C@H](CO)NC(=O)[C@@H](NC(=O)[C@H](CC(=O)O)NC(=O)[C@H](CO)NC(=O)[C@@H](NC(=O)[C@](C)(Cc1ccccc1)NC(=O)[C@H](CO)NC(=O)CNC(=O)[C@H](Cc1c[nH]cn1)NC(=O)C(C)(C)NC(=O)[C@@H](N)Cc1c[nH]cn1)[C@@H](C)O)C(C)C)C(C)C)C(=O)N[C@@H](C)C(=O)N[C@@H](CC(N)=O)C(=O)N[C@H](C(N)=O)[C@@H](C)O` [Peptide 356] (H-H[Aib]HGS[αMeF]TSDVSK[αMeF]LDSQAAQDFVK([AEEA-AEEA-γGlu-C20 diacid])WIANT-NH2; N-terminus assumed), the “% Relative Potency Ratio” value in assay [1] came out at 2.1. Moreover, the figures for the EC50 in assay [1] (hGLP-1R EC50 (pM)) and in assay [2] (hGluc-R EC50 (pM)) were 304 pM and 316 pM, respectively.
For `CC[C@H](C)[C@H](NC(=O)[C@H](Cc1c[nH]c2ccccc12)NC(=O)[C@H](CCCCNC(=O)COCCOCCNC(=O)COCCOCCNC(=O)CC[C@H](NC(=O)CCCCCCCCCCCCCCCCC(=O)O)C(=O)O)NC(=O)[C@@H](NC(=O)[C@H](Cc1ccccc1)NC(=O)[C@H](CC(=O)O)NC(=O)[C@H](CCC(N)=O)NC(=O)[C@H](C)NC(=O)[C@H](C)NC(=O)[C@H](CCC(N)=O)NC(=O)[C@H](CO)NC(=O)[C@H](CC(=O)O)NC(=O)[C@H](CC(C)C)NC(=O)[C@](C)(Cc1ccccc1)NC(=O)[C@H](CCCCN)NC(=O)[C@H](CO)NC(=O)[C@@H](NC(=O)[C@H](CC(=O)O)NC(=O)[C@H](CO)NC(=O)[C@@H](NC(=O)[C@](C)(Cc1ccccc1)NC(=O)[C@H](CO)NC(=O)CNC(=O)[C@@H](NC(=O)C(C)(C)NC(=O)[C@@H](N)Cc1c[nH]cn1)[C@@H](C)CC)[C@@H](C)O)C(C)C)C(C)C)C(=O)N[C@@H](C)C(=O)N[C@@H](CC(N)=O)C(=O)N[C@H](C(N)=O)[C@@H](C)O` [Peptide 358] (H-H[Aib]IGS[αMeF]TSDVSK[αMeF]LDSQAAQDFVK([AEEA-AEEA-γGlu-C18 diacid])WIANT-NH2; N-terminus assumed), the EC50 is 74.9 pM in assay [1] (hGLP-1R EC50 (pM)) and 16000 pM in assay [2] (hGluc-R EC50 (pM)).
In the case of `CC[C@H](C)[C@H](NC(=O)[C@H](Cc1c[nH]c2ccccc12)NC(=O)[C@H](CCCCNC(=O)COCCOCCNC(=O)COCCOCCNC(=O)CC[C@H](NC(=O)CCCCCCCCCCCCCCCCC(=O)O)C(=O)O)NC(=O)[C@@H](NC(=O)[C@H](Cc1ccccc1)NC(=O)[C@H](CC(=O)O)NC(=O)[C@H](CCC(N)=O)NC(=O)[C@H](C)NC(=O)[C@H](C)NC(=O)[C@H](CCCNC(=N)N)NC(=O)[C@H](CO)NC(=O)[C@H](CC(=O)O)NC(=O)[C@H](CC(C)C)NC(=O)[C@](C)(Cc1ccccc1)NC(=O)[C@H](CCCCN)NC(=O)[C@H](CO)NC(=O)[C@@H](NC(=O)[C@H](CC(=O)O)NC(=O)[C@H](CO)NC(=O)[C@@H](NC(=O)[C@](C)(Cc1ccccc1)NC(=O)[C@H](CO)NC(=O)CNC(=O)[C@@H](NC(=O)C(C)(C)NC(=O)[C@@H](N)Cc1c[nH]cn1)[C@@H](C)CC)[C@@H](C)O)C(C)C)C(C)C)C(=O)N[C@@H](C)C(=O)N[C@@H](CC(N)=O)C(=O)N[C@H](C(N)=O)[C@@H](C)O` [Peptide 359] (H-H[Aib]IGS[αMeF]TSDVSK[αMeF]LDSRAAQDFVK([AEEA-AEEA-γGlu-C18 diacid])WIANT-NH2), in assay [1], the “% Relative Potency Ratio” value was found to be 216.6. In addition, the EC50 in assay [1] (setting [3]) stood at 46.1 pM; in assay [2] (read-out: hGluc-R EC50) it was 5050 pM.
`CC[C@H](C)[C@H](NC(=O)[C@H](Cc1c[nH]c2ccccc12)NC(=O)[C@H](CCCCNC(=O)COCCOCCNC(=O)COCCOCCNC(=O)CC[C@H](NC(=O)CCCCCCCCCCCCCCCCCCC(=O)O)C(=O)O)NC(=O)[C@@H](NC(=O)[C@H](Cc1ccccc1)NC(=O)[C@H](CC(=O)O)NC(=O)[C@H](CCC(N)=O)NC(=O)[C@H](C)NC(=O)[C@H](C)NC(=O)[C@H](CCCNC(=N)N)NC(=O)[C@H](CO)NC(=O)[C@H](CC(=O)O)NC(=O)[C@H](CC(C)C)NC(=O)[C@](C)(Cc1ccccc1)NC(=O)[C@H](CCCCN)NC(=O)[C@H](CO)NC(=O)[C@@H](NC(=O)[C@H](CC(=O)O)NC(=O)[C@H](CO)NC(=O)[C@@H](NC(=O)[C@](C)(Cc1ccccc1)NC(=O)[C@H](CO)NC(=O)CNC(=O)[C@@H](NC(=O)C(C)(C)NC(=O)[C@@H](N)Cc1c[nH]cn1)[C@@H](C)CC)[C@@H](C)O)C(C)C)C(C)C)C(=O)N[C@@H](C)C(=O)N[C@@H](CC(N)=O)C(=O)N[C@H](C(N)=O)[C@@H](C)O` [Peptide 360] (H-H[Aib]IGS[αMeF]TSDVSK[αMeF]LDSRAAQDFVK([AEEA-AEEA-γGlu-C20 diacid])WIANT-NH2; N-terminus assumed): the “% Relative Potency Ratio” value in assay [1] amounted to 103.5. Besides, the EC50 in assay [1] (setting [3]) was found to be 108 pM; in assay [2] (read-out: hGluc-R EC50), 5640 pM.
